Assay results: US10722582B2, “Targeted antimicrobial photodynamic therapy” (Purdue Research Foundation, priority 2018, dated 2020)
Marks after values point to notes of the source that are not given here.

Experiments:
Format in all cases: cell-based, Staphylococcus aureus
[1] = test system: MRSA (USA700), clinical isolate NRS 386; test: aPDI with CFL irradiation (406 nm), planktonic bacteria, drop-plate colony count; conditions: for potency relative to dark toxicity (0 min exposure): 15 min CFL, 3-log reduction
Protocol: (§1) In all cases, we observed potent aPDI with bactericidal activities at 1-5 μM (Table 1). The consistent response to Ga-PpIX treatment is encouraging, as variable efficacy between strains is a known problem in antimicrobial photodynamic therapy (Nakonieczna, J. et al., Photodiagn. Photodyn. Ther. 2012, 9, 359-361). […] We note that PpIX is already approved as a photosensitizer for topical treatment of several skin diseases, but its utility is limited by poor photostability.
(§2) All bacterial strains were cultured at 37° C. in an aerobic atmosphere unless otherwise noted. […] Bacterial counts were estimated in units of cfu/mL by plating serial dilutions onto agar plates, followed by incubation for 16 hours at 37° C. Iron-challenged conditions were typically achieved by first growing the bacteria in standard (iron-replete) media (see Table 2), then harvesting and resuspending in media containing 3 mM 2,2′-bipyridine. Further details and variations on iron-deficient culture conditions are provided in Supporting Information.
(§3) A 20-W compact fluorescent lightbulb (CFL; Sunlite SL20/BLB) housed in an ellipsoidal reflector dome was used for aPDI, at an emission wavelength at 406 nm and a mean power density of 12.4 mW/cm^2 (after applying a 408-nm shortpass filter). Antimicrobial assays were performed on planktonic bacteria at 10^7 cfu/mL with variable exposure times to CFL irradiation, followed by plating on agar and incubation at 37° C. In a typical experiment, bacterial suspensions were transferred into 96-well plates then treated with 100-μL aliquots of Ga-PpIX or PpIX solution, with final concentrations ranging from 320 to 0.31 μg/mL, followed immediately with CFL irradiation for 5 to 15 minutes. The irradiated bacteria were plated onto agar in serial tenfold dilutions (10^7-10^1 cfu/mL); controls included one set of wells without photosensitizer, and one set of wells with photosensitizer but without 15 min irradiation, prior to plating (dark toxicity). Bacterial counts were determined by the drop-plate method using TS-agar plates, and reported in colony-forming units per milliliter (cfu/mL).
(§4) The irradiation source consisted of a 20-W compact fluorescent lightbulb (CFL; Sunlite SL20/BLB) housed in an ellipsoidal reflector dome. Emission spectra were measured with an Acton SpectraPro 2300i spectrometer (1200 gratings/inch), with major peaks at 406 and 438 nm and a minor peak at 548 nm (FIG. 10). Irradiance was measured with a handheld luminometer (Lux/FC HS1010A) positioned 4 cm from the CFL, yielding 91 lux or an average power density of 36.4 mW/cm^2; addition of a 425-nm or 408-nm shortpass filter yielded 31 lux or 12.4 mW/cm^2 corresponding with emission at 406 nm. The CFL produced only minor increases in temperature within the dome (28° C. after 15 min).

[2] = test system: MRSA (USA500), clinical isolate NRS 385; test: as above; conditions: for potency relative to dark toxicity (0 min exposure): 15 min CFL, 3-log reduction
Protocol: as §1, §2, §3, §4

[3] = test system: MRSA (USA800), clinical isolate NRS 387; test: as above; conditions: for potency relative to dark toxicity (0 min exposure): 15 min CFL, 3-log reduction
Protocol: as §1, §2, §3, §4

[4] = test system: MRSA (USA200), clinical isolate NRS 383; test: as above; conditions: for potency relative to dark toxicity (0 min exposure): 15 min CFL, 3-log reduction
Protocol: as §1, §2, §3, §4

S. aureus (PCI 1203) = test: Competitive hemin uptake assay (fluorescence microscopy); conditions: for Fluorescence after 15 min / Fluorescence after 15 min exposure + 1 equiv. hemin: Fe-deficient conditions (TS media containing 3 mM bipy), no background subtraction
Protocol: To elucidate the relevant structural features for the specific uptake of Ga-PpIX by S. aureus, we performed a competitive uptake assay using one equivalent of hemin against Ga-PpIX, PpIX, and eleven other fluorescent PpIX derivatives, with evaluation by fluorescence microscopy after 15 minutes of co-incubation (FIG. 5 and Table 4). These studies were partly guided by insights taken from the X-ray structures of hemin and Ga-PpIX within the binding pocket of IsdH: (i) coordination of the metal center by an apical tyrosine residue; (ii) the flanking of vinyl groups on pyrrole rings A and B against nearby aromatic residues; and (iii) the extension and presumed hydration of the propionyl groups (rings C and D) outside of the binding pocket.
Bacteria were cultured and assayed in iron-deficient media unless otherwise noted. A stock solution of Ga-PpIX (14.6 μM) was prepared by dispersing 5 mg in 1 mL of 10% DMSO in PBS for 10 minutes in an ultrasonic cleaning bath protected from light, followed by filtration and 10× dilution in PBS just prior to use. Bacterial suspensions (0.5 mL) were treated with freshly prepared solutions of PpIX derivatives for specified periods (5-15 min), then harvested by centrifugation at 5.2 g for 5 minutes, redispersed twice in 0.5 mL deionized water, and centrifuged a third time. A 10-μL aliquot of concentrated bacteria was deposited onto a glass slide and dried in air for 20 min, then imaged by fluorescence microscopy as described above. For details on fluorescence image processing and quantitative analysis, see Supporting Information.
S. aureus (PCI 1203; ATCC 10537) was first cultured in standard TS broth, then in media containing 3 mM bipyridine. Bacteria were pelleted and washed with PBS buffer three times, then resuspended to a final concentration of 10^8 cfu/mL. Stock solutions of hemin and PpIX derivatives 1-13 were prepared at initial concentrations of 292 μM; hemin and fluorescent PpIX solutions were mixed in a 1:1 ratio (0.5 mL), then added to 0.5 mL of bacterial suspension and allowed to sit for 15 min at room temperature. For control studies, hemin or fluorophore solutions were substituted with PBS to maintain constant […]. Bacteria were harvested and washed as described above, then evaluated by fluorescence microscopy for relative uptake efficiency.
Darkfield and fluorescent images were acquired in succession, with the former used to map regions of interest (ROIs) by tracing the outlines of bacteria (FIG. 8). Three images were acquired for each sample; in each case, the tracing map was overlaid onto the fluorescence image to calculate pixel intensities within each ROI, using the mean pixel intensity for quantitative analysis. Bacteria were also imaged without treatment with PpIX analogs, most of which produced values close to that of background except for Salmonella enterica, which served as the upper limit of autofluorescence (cf. FIG. 4). Data collection and image analyses were performed by the same user to ensure consistency for comparative analysis.

[5] = 0 min (dark), no irradiation (dark toxicity)
[6] = 0 min (dark), no irradiation (dark toxicity), listed as PpIX
[7] = one equivalent of hemin, 15 minutes of co-incubation
[8] = 0 min (dark), no irradiation (dark toxicity), listed as Ga-

| Compound | Antimicrobial activity (minimum 3-log CFU reduction) [1, 5] [μM] | Antimicrobial activity (minimum 3-log CFU reduction) ([1]; 15 min CFL (11.2 J/cm^2)) [μM] | Eradication (6 log reduction) ([1]; 15 min CFL (11.2 J/cm^2)) [μM] | potency relative to dark toxicity (0 min exposure) [1] [x] | Eradication (6 log reduction) ([1]; No irradiation (dark toxicity)) [μM] | Antimicrobial activity (minimum 3-log CFU reduction) [2, 5] [μM] | Antimicrobial activity (minimum 3-log CFU reduction) ([2]; 15 min CFL (11.2 J/cm^2)) [μM] | Eradication (6 log reduction) ([2]; 15 min CFL (11.2 J/cm^2)) [μM] | potency relative to dark toxicity (0 min exposure) [2] [x] | Eradication (6 log reduction) ([2]; No irradiation (dark toxicity)) [μM] | Antimicrobial activity (minimum 3-log CFU reduction) [3, 5] [μM] | Antimicrobial activity (minimum 3-log CFU reduction) ([3]; 15 min CFL (11.2 J/cm^2)) [μM] | Eradication (6 log reduction) ([3]; 15 min CFL (11.2 J/cm^2)) [μM] | potency relative to dark toxicity (0 min exposure) [3] [x] | Eradication (6 log reduction) ([3]; No irradiation (dark toxicity)) [μM] | Antimicrobial activity (minimum 3-log CFU reduction) [4, 5] [μM] | Eradication (6 log reduction) ([4]; 15 min CFL (11.2 J/cm^2)) [μM] | potency relative to dark toxicity (0 min exposure) [4] [x] | Eradication (6 log reduction) ([4]; No irradiation (dark toxicity)) [μM] | Fluorescence after 15 min (S. aureus (PCI 1203)) [a.u.] | other results |
| --- | --- | --- | --- | --- | --- | --- | --- | --- | --- | --- | --- | --- | --- | --- | --- | --- | --- | --- | --- | --- | --- |
| C=CC1=C(C)c2cc3[nH]c(cc4nc(cc5[nH]c(cc1n2)c(C)c5CCC(=O)O)C(CCC(=O)O)=C4C)c(C)c3C=C [PpIX (2), PpIX, reference compound] | >146 | 36.3 | 73 | >4 | >146 | >146 | 18.3 | 36.3 | >8 | >146 | >146 | 9.1 | 18.3 | 16 | >146 | 36.3 | 4.6 | 32 | 146 | 16.70 | Antimicrobial activity (minimum 3-log CFU reduction) [1, 6]: >146^d μM; Antimicrobial activity (minimum 3-log CFU reduction) [2, 6]: >146^d μM; Antimicrobial activity (minimum 3-log CFU reduction) [3, 6]: 146 μM; Antimicrobial activity (minimum 3-log CFU reduction) ([4]; 15 min CFL (11.2 J/cm^2)): 1.1 μM; Antimicrobial activity (minimum 3-log CFU reduction) ([4]; 15 min CFL (11.2 J/cm^2), listed as PpIX): 1.1^c μM; Fluorescence after 15 min exposure + 1 equiv. hemin (S. aureus (PCI 1203)): 9.4 a.u.; effect of hemin competition on uptake (S. aureus (PCI 1203); [7]): moderately affected by hemin |
| Ga(III)-protoporphyrin [Ga-PpIX (1)] | >146 | 4.6 | 18.3 | >32 | >146 | >146 | 4.6 | 36.3 | >32 | >146 | 73 | 1.1 | 2.3 | 64 | 146 | 36.3 | 2.3 | 32 | 73 | 42.55 | Antimicrobial activity (minimum 3-log CFU reduction) [1, 8]: >146^d μM; Antimicrobial activity (minimum 3-log CFU reduction) [2, 8]: >146^d μM; Antimicrobial activity (minimum 3-log CFU reduction) ([4]; 15 min CFL (11.2 J/cm^2), listed as Ga-): 1.1^c μM; Antimicrobial activity (minimum 3-log CFU reduction) ([4]; 15 min CFL (11.2 J/cm^2), listed as GaPpIX (1)): 1.1 μM; Fluorescence after 15 min exposure + 1 equiv. hemin (S. aureus (PCI 1203)): 10.0 a.u.; reduction in fluorescence by competition with hemin (S. aureus (PCI 1203); [7]): greater than 80% |
